Laboratory results reported in a melting point compilation (Tetko et al.).

| Compound | melting point |
| --- | --- |
| O=C1CC(c2ccccc2)N1 (stereo not given) | 107 to 109 °C |
| Nc1ccc2c(c1)nc1n2CCCCC1 | 180 to 182 °C |
| COC(=O)c1nc2n(n1)-c1ccccc1S(=O)(=O)N2 | 262 to 264 °C |
| O=C1CCc2cc(Cl)c(S(=O)(=O)Cl)cc2N1 | 207 to 209 °C |
| NC(=S)N1CCCCCC1 | 151 to 153 °C |
| O=C(Nc1cccc(F)c1)C1CSCN1 (stereo not given) | 222 to 224 °C |
| O=c1[nH]c(CCl)nc2sccc12 | 209 to 211 °C |
| CC1Cc2ccccc2N1Cc1occc1C(=O)O (stereo not given) | 186 to 188 °C |
| COC(=O)Cc1c(C)n[nH]c1C | 51 to 55 °C |
| Cn1cc(/C=C/C(=O)O)c(=O)n(C)c1=O | 272 to 274 °C |
| O=S1(=O)N=C2CCCCCN2C(c2ccncc2)N1 (stereo not given) | 176 to 178 °C |
| O=C(Cn1ccnc1)c1cccc(F)c1 | 113 to 115 °C |
| O=C(Nc1ccccc1)C1CCc2ccccc2N1 (stereo not given) | 124 to 126 °C |
| N#Cc1cccc(-c2nnc(N)o2)c1 | 253 to 255 °C |
| Oc1ccc(OCC2CC2)cc1 | 54 to 56 °C |
| CCN(CC)S(=O)(=O)c1ccc(N2CCN(C)CC2)c(N)c1 | 148 to 152 °C |
| O=C(Nc1ccco1)OCC(F)(F)F | 78 to 80 °C |
| Nc1cccc(-c2nc3ccccc3s2)c1 | 138 to 140 °C |

| Compound | melting point |
| --- | --- |
| Cc1nc2ccccc2c(=O)n1-c1ccc(F)cc1 | 134 to 136 °C |
| CC(C)(C)c1ccc(S(N)(=O)=O)s1 | 80 to 82 °C |
| COc1ccc(CNC(=O)C(C#N)=CN(C)C)cc1 | 128 to 130 °C |
| NNC(=S)NCC(N)=O | 153 to 155 °C |
| COc1ccc(Cn2ncc(C)c2N)cc1OC | 98 to 100 °C |
| CCN(c1ccccc1)c1ccc(C(=O)O)cc1 | 178 to 180 °C |
| COc1cc(OC)cc(-n2c(C)c(C)c(C#N)c2N)c1 | 166 to 168 °C |
| OC(CNCc1ccccc1)c1ccsc1 (stereo not given) | 78 to 80 °C |
| COCCN(C(C)=O)c1nc(CCl)cs1 | 98 to 100 °C |
| COc1ccc(-c2ccc(CN)s2)cc1 | 114 to 116 °C |
| O=C(c1cccnc1)c1c(F)cc(F)cc1F | 38 to 40 °C |
| O=C(O)/C=C/c1cn(-c2ccccc2)nc1-c1ccc(Cl)s1 | 200 to 202 °C |
| Nc1ccc(S(=O)(=O)N=C2CCCCCN2)cc1 | 115 to 117 °C |
| O=C(O)c1cscn1 | 195 to 197 °C |
| Cc1cc(C=O)c(C)n1-c1ccc(F)cc1F | 133 to 135 °C |
| CN1CCN(C(=O)Cn2cc(N)cn2)CC1 | 119 to 121 °C |
| O=C(O)c1ccccc1COc1ccccc1C(=O)O | 199 to 201 °C |
| CNc1n[nH]c(N)c1S(C)(=O)=O | 171 to 173 °C |

Continued, values first:

| melting point | Compound |
| --- | --- |
| 188 to 190 °C | Cc1nc2ccccn2c1C(=O)NN |
| 126 to 128 °C | Nc1ccc(Cl)c(C(=O)NC2CC2)c1 |
| 170 to 172 °C | CCOC(=O)Nc1ccc(C(=O)O)cc1 |
| 218 to 220 °C | Cc1cc(C(N)C(=O)O)ccc1Cl (stereo not given) |
| 94 to 96 °C | O=Cc1cc(Cl)c2ccccc2c1O |
| 141 to 143 °C | Cc1cc(N)ccc1NS(C)(=O)=O |
| 235 to 237 °C | CC(C)Cc1cc(C(=O)O)cc(O)n1 |
| 56 to 58 °C | Cc1nc(-c2cccc(N)c2)n[nH]1 |
| 109 to 111 °C | CCOCCOc1ccc(Br)cc1/C=C/C(=O)O |
| 209 to 211 °C | Cc1oc(S(N)(=O)=O)cc1C(=O)O |
| 89 to 91 °C | Cc1ccc(NC(=O)C2CSCN2)c(C)c1 (stereo not given) |
| 111 to 113 °C | CC(=O)c1ccc(Cl)c(S(=O)(=O)Cl)c1 |
| 79 to 81 °C | CSCCC(NC(=O)c1ccc(Cl)cc1Cl)C(=O)O (stereo not given) |
| 41 to 43 °C | COC(=O)c1cc(F)ccc1CBr |
| 208 to 210 °C | Cn1cc(-c2ccc(F)c(C(=O)O)c2)cn1 |
| 305 to 307 °C | O=C(O)c1ccc(NC(=O)c2cc(Cl)cc(Cl)c2)cc1 |
| 101 to 103 °C | CC1CCC(NS(=O)(=O)c2ccc(Cl)c([N+](=O)[O-])c2)CC1 (stereo not given) |
| 128 to 130 °C | Cc1cc(C(=O)N2CCCC(C)C2)ccc1N (stereo not given) |
| 99 to 101 °C | O=C(O)C1CCCN1c1ncc(C(F)(F)F)cc1Cl (stereo not given) |
